Experimental data: patent US5948793A, “3-pyridyloxymethyl heterocyclic ether compounds useful in controlling neurotransmitter release” (Abbott Laboratories, priority 1995, dated 1999)

What was measured:
[1] = target: neuronal nicotinic cholinergic channel receptors; test: [3H]-cytisine displacement binding to neuronal nicotinic cholinergic channel receptors; format: rat (crude synaptic membranes from whole rat brain); conditions: Table 1; [3H]-cytisine 1.25 nM, 60 min at 4° C.; read-out: Receptor Binding Ki
[2] = system: nAChR evoked release of [3H]-dopamine, rat striatal slices; test: Striatal dopamine release assay (nAChR evoked release of [3H]-dopamine from superfused rat striatal slices); format: cell-based, rat (male Sprague-Dawley); conditions: Table 1; example concentration * = 10 μM; relative to 100 nM (-)-nicotine
Procedure: The protocol for this procedure follows below.
A. Protocol for Determination of Striatal Dopamine Release.
nAChR evoked release of [ring-2,5,6-^3 H]-dopamine (24.4 Ci/mmol) was measured in superfused rat striatal slices. Striata were dissected from two male Sprague-Dawley rats per experiment and sliced 0.35×0.25 mm by a McIlwain Tissue Chopper (Brinkman Instrument Co., Westbury, N.Y.). After two washes with Krebs-HEPES buffer (137 mM NaCl, 4.7 mM KCl, 1 mM MgSO4, 2.5 mM CaCl2, 1.25 mM NaH2 PO4, 10 mM glucose, 15 mM HEPES-NaOH, pH 7.4, containing 10 μM pargyline and 10 μM ascorbic acid), slices were preincubated for 10 minutes at 37° C. under 95%/5% O2 /CO2. After replacing the buffer, slices were labeled with 100 nM [^3 H]-dopamine for 25 min in Krebs-HEPES at 37° C. Aliquots of slices were placed in 18 superfusion chambers of a Brandel SP2000 superfusion apparatus (Brandel, Gaithersberg, Md.). Following 47 minutes of washout, slices were exposed to agonist at various concentrations for 4 minutes. Antagonists or inhibitors, when present were introduced 4 minutes prior to and during agonist exposure. Collected fractions were counted in 5 mL of Ecolume. Tissue was recovered from superfusion chambers, solubilized with 1 mL of Solvable™ (DuPont-NEN) and counted in 15 mL of Ecolume. Fractional release of [^3 H]-dopamine was calculated from radioactivity above baseline as a fraction of total radioactivity.

[3] = system: cholinergic ligand-gated channels, PC12 cells; test: Cholinergic channel activation in PC12 cells (whole-cell patch-clamp); format: cell-based
Excerpt: D. Protocols for the Determination of Cholinergic Channel Activation in PC12 Cells.
The cholinergic channel activator properties of Example 9 were investigated in PC12 cells using the whole-cell patch-clamp approach to measure current flow through ligand-gated membrane channels.

[4] = system: release of dopamine and acetylcholine; conditions: cited from earlier work
[5] = cited from earlier work
heart = conditions: in vivo; cited from earlier work
[6] = acutely- and chronically-administered; also observed in aged animals; cited from earlier work
dopaminergic neurons = conditions: animals with induced brain injuries; cited from earlier work
[7] = transdermal patches; cited from earlier work
[8] = in vivo; cited from earlier work

## Cl.Cl.c1cncc(OC[C@@H]2CCN2)c1 [Example 9, 3-(2-(S)-azetidinylmethoxy)pyridine dihydrochloride]
[1]
  Ki: 0.05 nM
[2]
  Dopamine Release relative to Nicotine: 1.0
[3]
  cholinergic channel activator properties (current flow through ligand-gated channels): clear agonist activity

## CN1CCCC1c1cccnc1 (single isomer, unassigned; (-)) [(-)-nicotine]
[4]
  release of dopamine and acetylcholine: enhance the release of dopamine and acetylcholine
[5]
  oral bioavailability: poor oral bioavailability
heart
  cardiac workload and oxygen demand: increasing cardiac workload and oxygen demand
[6]
  cognitive function: enhances cognitive function in rats
Dopaminergic neurons
  pre-synaptic loss of functional dopaminergic neurons: can prevent pre-synaptic loss of functional dopaminergic neurons
[7]
  symptoms of ADD: improve the symptoms of ADD
[8]
  sensory-gating impairments: normalize sensory-gating impairments
